We go through 7 compounds from patent US20130158040A1, “DIAZAINDOLE INHIBITORS OF CRAC” (Hoffmann-La Roche Inc., priority 2011, published 2013).

Broadly, the IC50 is the point on the concentration scale where inhibition reaches its midpoint. A lower IC50 goes with greater potency.

This test relates to Jurkat cell. Briefly: Jurkat IL-2 Production Assay. Type of test: cell-based. Particulars: Homo sapiens; IL-2 production in Jurkat cells; 18 h~20 h incubation; serum/stimulant condition (1% FBS with PHA or 30% FBS with PMA/Ionomycin) not specified. The method, then: Jurkat IL-2 Production Assay
Jurkat cell (ATCC) was grown in RPMI 1640 with 10% FBS and 1% penicillin/streptomycin. The cell density was kept at 1.2˜1.8×10^6/mL in culture flask before seeding into culture plate, and the cell density in the plate was 0.5×10^6/[…]/well.
RPMI 1640 with 1% FBS or 30% FBS for high serum assay.
serial dilution was done in 100% DMSO, and intermediate dilution was done with RPMI 1640 medium with 1% FBS. The DMSO final concentration in culture well was 0.25%.
PHA (Sigma#L9017-10MG) was used for the assay with 1% FBS in culture medium, and added after 10 minutes exposure of cell to compound/DMSO. The PHA final concentration in culture well was 5 μg/mL. PMA (Sigma# P-8139 5MG)/Ionomycin (Sigma#10634-5MG) was used for the assay with 30% FBS in culture medium, and added at same time point as the 1% FBS culture assay. The final concentration of PMA was 50 ng/mL, and Ionomycin final concentration was 500 ng/mL.
at 37° C. with 5% CO2 and 95% humidity for 18 h˜20 h.
IC50 was calculated with the data analysis software XLfit4, General Pharmacology model 251.
`Cc1cc(S(=O)(=O)N(C)C)ccc1-c1ncc2[nH]c(-c3c(F)cccc3Cl)cc2n1` [Example 1, 4-[6-(2-chloro-6-fluoro-phenyl)-5H-pyrrolo[3,2-d]pyrimidin-2-yl]-3,N,N-trimethyl-benzenesulfonamide] came in with an IC50 of 687 nM. In other words, the sub-micromolar range.

As for `Cn1nc(C(F)(F)F)cc1-c1cnc2[nH]c(-c3ccccc3Cl)cc2n1` [Example 2, 6-(2-Chloro-phenyl)-2-(2-methyl-5-trifluoromethyl-2H-pyrazol-3-yl)-5H-pyrrolo[2,3-b]pyrazine], the IC50 came out at 766 nM.

The compound `COC(=O)c1ccc(-c2cnc3[nH]c(-c4ccccc4Cl)cc3n2)c(C)c1` [Example 3, 4-[6-(2-Chloro-phenyl)-5H-pyrrolo[2,3-b]pyrazin-2-yl]-3-methyl-benzoic acid methyl ester] displayed an IC50 of 205 nM.

For the compound `Cc1cc(S(=O)(=O)N(C)C)ccc1-c1cnc2[nH]c(-c3ccccc3Cl)cc2n1` [Example 4, 4-(6-(2-Chlorophenyl)-5H-pyrrolo[2,3-b]pyrazin-2-yl)-N,N,3-trimethylbenzenesulfonamide], inhibition was half-maximal at 133 nM (IC50).

As to `Cn1nc(C(F)(F)F)cc1-c1cnc2[nH]c(-c3c(F)cccc3Cl)cc2n1` [Example 5, 6-(2-chloro-6-fluorophenyl)-2-(1-methyl-3-(trifluoromethyl)-1H-pyrazol-5-yl)-5H-pyrrolo[2,3-b]pyrazine], the midpoint of inhibition, the IC50, lay at 269 nM.

As for `Cn1nc(C(F)(F)F)cc1-c1cnc2[nH]c(C3CCCCC3)cc2n1` [Example 6, 6-Cyclohexyl-2-(1-methyl-3-(trifluoromethyl)-1H-pyrazol-5-yl)-5H-pyrrolo[2,3-b]pyrazine], half-maximal inhibition (IC50) was put at 681 nM.

With `Cc1cc(S(=O)(=O)N(C)C)ccc1-c1cnc2[nH]c(C3CCCCC3)cc2n1` [Example 7, 4-(6-cyclohexyl-5H-pyrrolo[2,3-b]pyrazin-2-yl)-N,N,3-trimethylbenzenesulfonamide], inhibition was half-maximal at 184 nM (IC50).
